Assay results taken from patent US20170050957A1, “4-AMINO-6-(HETEROCYCLIC)PICOLINATES AND 6-AMINO-2-(HETEROCYCLIC)PYRIMIDINE-4-CARBOXYLATES AND THEIR USE AS HERBICIDES” (Dow AgroSciences LLC, priority 2013, published 2017).
Like-named read-outs stand apart in the source and are kept apart here. Blank lines part the entries; values can stand above or below the compound they belong to.

How the values were obtained:
[1] = system: Key Broadleaf Weed and Crop Species; test: Post-emergent Test II herbicidal activity (Table 15); assay type: in vivo; conditions: post-emergence, 336 h, 14 d; for pest or weed control at 35 g/ha: 35 g ai/ha; for pest or weed control at 70 g/ha: 70 g ai/ha; for pest or weed control at 140 g/ha: 140 g ai/ha; for pest or weed control at 280 g/ha: 280 g ai/ha
Summary of the method: (§1)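 Plants at first-second true leaf stage, grown 7-21 d in greenhouse (~15 h photoperiod, 23-29 °C day), were track-sprayed at 187 L/ha with compound in acetone/DMSO/water/isopropanol/crop oil/Triton X-155 at a high rate plus 1/2× to 1/16× dilutions. Injury scored visually after 14 d versus untreated plants, 0 (none) to 100% (complete kill).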

[2] = system: Key Grass and Sedge Weeds as well as Grass Crops; test: Post-emergent Test II herbicidal activity (Table 16); assay type: in vivo; conditions: post-emergence, 336 h, 14 d; for pest or weed control at 35 g/ha: 35 g ai/ha; for pest or weed control at 70 g/ha: 70 g ai/ha; for pest or weed control at 140 g/ha: 140 g ai/ha; for pest or weed control at 280 g/ha: 280 g ai/ha
Summary of the method: as §1

[3] = Abutilon theophrasti, velvetleaf (Abutilon theophrasti), read-out: Visual Growth Reduction (%) 14 Days After Application, ABUTH
[4] = Amaranthus retroflexus, redroot pigweed (Amaranthus retroflexus), read-out: Visual Growth Reduction (%) 14 Days After Application, AMARE
[5] = Brassica napus, oilseed rape, canola (Brassica napus), read-out: Visual Growth Reduction (%) 14 Days After Application, BRSNN
[6] = Chenopodium album, lambsquarters (Chenopodium album), read-out: Visual Growth Reduction (%) 14 Days After Application, CHEAL
[7] = Euphorbia heterophylla, wild poinsettia (Euphorbia heterophylla), read-out: Visual Growth Reduction (%) 14 Days After Application, EPHHL
[8] = Helianthus annuus, sunflower (Helianthus annuus), read-out: Visual Growth Reduction (%) 14 Days After Application, HELAN
[9] = Cyperus esculentus, yellow nutsedge (Cyperus esculentus), read-out: Visual Growth Reduction (%) 14 Days After Application, CYPES
[10] = Echinochloa crus-galli, barnyardgrass (Echinochloa crus-galli), read-out: Visual Growth Reduction (%) 14 Days After Application, ECHCG
[11] = Oryza sativa, rice (Oryza sativa), read-out: Visual Growth Reduction (%) 14 Days After Application, ORYSA
[12] = Setaria faberi, giant foxtail (Setaria faberi), read-out: Visual Growth Reduction (%) 14 Days After Application, SETFA
[13] = Triticum aestivum, wheat, spring (Triticum aestivum), read-out: Visual Growth Reduction (%) 14 Days After Application, TRZAS
[14] = Zea mays, maize, corn (Zea mays), read-out: Visual Growth Reduction (%) 14 Days After Application, ZEAMX

melting point: 84 to 87 °C
Compound: COC(=O)c1nc(-c2ccc3occc3c2)cc(N)c1Cl [Compound 2.03]
pest or weed control at 35 g/ha [1, 3]: 95 to 100% | pest or weed control at 70 g/ha [1, 3]: 95 to 100% | pest or weed control at 140 g/ha [1, 3]: 95 to 100% | pest or weed control at 280 g/ha [1, 3]: 95 to 100% | pest or weed control at 35 g/ha [1, 4]: 60 to 74% | pest or weed control at 70 g/ha [1, 4]: 85 to 94% | pest or weed control at 140 g/ha [1, 4]: 85 to 94% | pest or weed control at 280 g/ha [1, 4]: 95 to 100% | pest or weed control at 35 g/ha [1, 5]: 0 to 29% | pest or weed control at 70 g/ha [1, 5]: 0 to 29% | pest or weed control at 140 g/ha [1, 5]: 0 to 29% | pest or weed control at 280 g/ha [1, 5]: 30 to 44% | pest or weed control at 35 g/ha [1, 6]: 85 to 94% | pest or weed control at 70 g/ha [1, 6]: 95 to 100% | pest or weed control at 140 g/ha [1, 6]: 95 to 100% | pest or weed control at 280 g/ha [1, 6]: 95 to 100% | pest or weed control at 35 g/ha [1, 7]: 45 to 59% | pest or weed control at 70 g/ha [1, 7]: 75 to 84% | pest or weed control at 140 g/ha [1, 7]: 75 to 84% | pest or weed control at 280 g/ha [1, 7]: 85 to 94% | pest or weed control at 35 g/ha [1, 8]: 0 to 29% | pest or weed control at 70 g/ha [1, 8]: 60 to 74% | pest or weed control at 140 g/ha [1, 8]: 75 to 84% | pest or weed control at 280 g/ha [1, 8]: 85 to 94% | pest or weed control at 35 g/ha [2, 9]: 0 to 29% | pest or weed control at 70 g/ha [2, 9]: 0 to 29% | pest or weed control at 140 g/ha [2, 9]: 0 to 29% | pest or weed control at 280 g/ha [2, 9]: 0 to 29% | pest or weed control at 35 g/ha [2, 10]: 30 to 44% | pest or weed control at 70 g/ha [2, 10]: 60 to 74% | pest or weed control at 140 g/ha [2, 10]: 85 to 94% | pest or weed control at 280 g/ha [2, 10]: 95 to 100% | pest or weed control at 35 g/ha [2, 11]: 0 to 29% | pest or weed control at 70 g/ha [2, 11]: 0 to 29% | pest or weed control at 140 g/ha [2, 11]: 0 to 29% | pest or weed control at 280 g/ha [2, 11]: 0 to 29% | pest or weed control at 35 g/ha [2, 12]: 0 to 29% | pest or weed control at 70 g/ha [2, 12]: 0 to 29% | pest or weed control at 140 g/ha [2, 12]: 30 to 44% | pest or weed control at 280 g/ha [2, 12]: 30 to 44% | pest or weed control at 35 g/ha [2, 13]: 0 to 29% | pest or weed control at 70 g/ha [2, 13]: 0 to 29% | pest or weed control at 140 g/ha [2, 13]: 0 to 29% | pest or weed control at 280 g/ha [2, 13]: 0 to 29% | pest or weed control at 35 g/ha [2, 14]: 0 to 29% | pest or weed control at 70 g/ha [2, 14]: 0 to 29% | pest or weed control at 140 g/ha [2, 14]: 0 to 29% | pest or weed control at 280 g/ha [2, 14]: 60 to 74%

melting point: 221 to 224 °C
Compound: COC(=O)c1nc(-c2ccc3[nH]ccc3c2)c(F)c(N)c1Cl [Compound 1.02, Methyl 4-amino-3-chloro-5-fluoro-6-(1H-indol-5-yl)picolinate]
pest or weed control at 35 g/ha [1, 3]: 0 to 29% | pest or weed control at 70 g/ha [1, 3]: 0 to 29% | pest or weed control at 140 g/ha [1, 3]: 0 to 29% | pest or weed control at 70 g/ha [1, 4]: 85 to 94% | pest or weed control at 140 g/ha [1, 4]: 85 to 94% | pest or weed control at 35 g/ha [1, 5]: 0 to 29% | pest or weed control at 70 g/ha [1, 5]: 0 to 29% | pest or weed control at 140 g/ha [1, 5]: 0 to 29% | pest or weed control at 35 g/ha [1, 6]: 75 to 84% | pest or weed control at 70 g/ha [1, 6]: 85 to 94% | pest or weed control at 140 g/ha [1, 6]: 95 to 100% | pest or weed control at 35 g/ha [1, 7]: 45 to 59% | pest or weed control at 70 g/ha [1, 7]: 45 to 59% | pest or weed control at 140 g/ha [1, 7]: 60 to 74% | pest or weed control at 35 g/ha [1, 8]: 45 to 59% | pest or weed control at 70 g/ha [1, 8]: 60 to 74% | pest or weed control at 140 g/ha [1, 8]: 60 to 74% | pest or weed control at 35 g/ha [2, 9]: 0 to 29% | pest or weed control at 70 g/ha [2, 9]: 0 to 29% | pest or weed control at 140 g/ha [2, 9]: 0 to 29% | pest or weed control at 35 g/ha [2, 10]: 0 to 29% | pest or weed control at 70 g/ha [2, 10]: 0 to 29% | pest or weed control at 140 g/ha [2, 10]: 45 to 59% | pest or weed control at 35 g/ha [2, 11]: 0 to 29% | pest or weed control at 70 g/ha [2, 11]: 0 to 29% | pest or weed control at 140 g/ha [2, 11]: 0 to 29% | pest or weed control at 35 g/ha [2, 12]: 0 to 29% | pest or weed control at 70 g/ha [2, 12]: 0 to 29% | pest or weed control at 140 g/ha [2, 12]: 0 to 29% | pest or weed control at 35 g/ha [2, 13]: 0 to 29% | pest or weed control at 70 g/ha [2, 13]: 0 to 29% | pest or weed control at 140 g/ha [2, 13]: 0 to 29% | pest or weed control at 35 g/ha [2, 14]: 0 to 29% | pest or weed control at 70 g/ha [2, 14]: 0 to 29% | pest or weed control at 140 g/ha [2, 14]: 0 to 29%
